Values of other authors in patent US8791095B2, “Steroidal CYP17 inhibitors/antiandrogens” (Tokai Pharmaceuticals, Inc., priority 2009, dated 2014).

Columns and labels:
human CYP17 enzyme = molecular target: T1, human CYP17 enzyme (Homo sapiens, UniProt P05093); details: read-out: IC50, inhibition of human CYP17 enzyme
T1 sequence (P05093 1-508): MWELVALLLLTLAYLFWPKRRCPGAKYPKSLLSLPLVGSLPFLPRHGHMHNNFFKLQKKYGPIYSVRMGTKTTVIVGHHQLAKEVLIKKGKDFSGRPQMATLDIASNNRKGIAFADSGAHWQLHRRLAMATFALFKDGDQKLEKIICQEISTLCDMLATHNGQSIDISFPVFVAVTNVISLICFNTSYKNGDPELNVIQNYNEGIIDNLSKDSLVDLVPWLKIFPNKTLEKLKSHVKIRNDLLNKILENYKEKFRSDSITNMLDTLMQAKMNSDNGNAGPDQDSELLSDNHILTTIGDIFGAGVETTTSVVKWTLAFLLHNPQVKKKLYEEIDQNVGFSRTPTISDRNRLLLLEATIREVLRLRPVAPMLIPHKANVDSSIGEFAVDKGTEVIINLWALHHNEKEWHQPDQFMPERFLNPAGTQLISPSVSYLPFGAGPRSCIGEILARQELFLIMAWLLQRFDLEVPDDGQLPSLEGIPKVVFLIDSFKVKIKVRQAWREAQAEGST

[1] = test system: LAPC4 human prostate tumor xenograft; details: for inhibition of growth of LAPC4 xenograft (in words): in vivo

conversion into a metabolite (metabolite tentatively identified as 17-(1H-benzimidazol-1-yl)androsta-3-one)	IC50 (human CYP17 enzyme)	Compound	peak plasma level (mice, s.c. 50 mg/kg)	detectability in plasma at 8 hours (mice, s.c. 50 mg/kg)	efficacy compared with castration ([1]; 50 mg/kg, twice daily)	reduction in the mean final tumor volume compared with controls ([1]; 50 mg/kg, twice daily, P=0.00065)	inhibition of growth of LAPC4 xenograft (in words) [1]	terminal half-life in plasma (mice, s.c. 50 mg/kg)
rapidly converted into a metabolite	50 nM	C[C@]12CC[C@H](O)CC1=CC[C@@H]1[C@@H]2CC[C@]2(C)C(n3cnc4ccccc43)=CC[C@@H]12 [Compound 1, 3β-hydroxy-17-(1H-benzimidazole-1-yl)androsta-5,16-diene]	16.82 ng/mL	neither was detectable	significantly more effective than castration	93.8%	very effective	–
–	3 to 6 nM	C[C@]12CC[C@H](O)CC1=CC[C@@H]1[C@@H]2CC[C@]2(C)C(c3cccnc3)=CC[C@@H]12 [abiraterone, 3β-hydroxy-17-(pyrid-3-yl)androsta-5,16-diene]	–	–	–	–	–	–
–	–	C[C@]12CCC(=O)C=C1CCC1C2CC[C@]2(C)C(n3cnc4ccccc43)=CCC12 (stereo partly shown) [Compound 2, 17-(1H-benzimidazole-1-yl)androsta-4,16-diene-3-one]	5.15 ng/mL	neither was detectable	–	–	ineffective	39.93 min

Compound	conversion into a metabolite (metabolite tentatively identified as 17-(1H-benzimidazol-1-yl)androsta-3-one)	IC50 (human CYP17 enzyme)	peak plasma level (mice, s.c. 50 mg/kg)	detectability in plasma at 8 hours (mice, s.c. 50 mg/kg)	efficacy compared with castration ([1]; 50 mg/kg, twice daily)	reduction in the mean final tumor volume compared with controls ([1]; 50 mg/kg, twice daily, P=0.00065)	inhibition of growth of LAPC4 xenograft (in words) [1]	terminal half-life in plasma (mice, s.c. 50 mg/kg)
CC12CCC(O)CC1=CCC1C2CCC2(C)C(c3cncnc3)=CCC12 (stereo not drawn) [Compound 3, 3β-hydroxy-17-(5′-pyrimidyl)androsta-5,16-diene]	–	500 nM	–	–	–	–	–	–
